In data set [1] the target is T1, CYP2A6 (Homo sapiens, UniProt P11509).
T1 sequence (P11509 1-494): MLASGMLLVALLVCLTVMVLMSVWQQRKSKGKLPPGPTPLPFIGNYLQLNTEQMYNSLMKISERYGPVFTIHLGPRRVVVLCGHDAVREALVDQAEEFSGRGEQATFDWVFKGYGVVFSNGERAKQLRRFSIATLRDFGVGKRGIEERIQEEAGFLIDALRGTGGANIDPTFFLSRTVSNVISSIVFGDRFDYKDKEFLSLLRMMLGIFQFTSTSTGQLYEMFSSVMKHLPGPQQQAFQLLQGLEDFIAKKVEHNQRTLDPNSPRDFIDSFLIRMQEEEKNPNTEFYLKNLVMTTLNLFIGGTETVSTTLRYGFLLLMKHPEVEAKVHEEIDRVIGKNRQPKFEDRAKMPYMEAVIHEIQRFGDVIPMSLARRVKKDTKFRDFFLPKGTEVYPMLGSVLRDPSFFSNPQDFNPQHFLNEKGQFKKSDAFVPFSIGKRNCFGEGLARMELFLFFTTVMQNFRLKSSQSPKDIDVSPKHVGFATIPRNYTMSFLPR
The experiment in a line: Inhibition of recombinant CYP2A6 (probe coumarin). The class given is in vitro ADME. The procedure:
(§1) In this study, phenacetin (100 μM), coumarin (100 μM), bupropion (100 μM), paclitaxel (60 μM), tolbutamide (200 μM), mephenytoin (100 μM), chlorzoxazone (200 μM) and nifedipine (40 μM) have been used as the probe substrates for CYP1A2, 2A6, 2B6, 2C8, 2C9, 2C19, 2E1 and 3A4, respectively.

Data set [2] addresses CYP3A4 (Homo sapiens, UniProt P08684). The experiment in a line: Inhibition of recombinant CYP3A4 (probe nifedipine). The class given is in vitro ADME. The method, then:
as §1

Data set [3] concerns the target T2, UGT1A1 (Homo sapiens, UniProt P22309).
T2 sequence (P22309 26-533): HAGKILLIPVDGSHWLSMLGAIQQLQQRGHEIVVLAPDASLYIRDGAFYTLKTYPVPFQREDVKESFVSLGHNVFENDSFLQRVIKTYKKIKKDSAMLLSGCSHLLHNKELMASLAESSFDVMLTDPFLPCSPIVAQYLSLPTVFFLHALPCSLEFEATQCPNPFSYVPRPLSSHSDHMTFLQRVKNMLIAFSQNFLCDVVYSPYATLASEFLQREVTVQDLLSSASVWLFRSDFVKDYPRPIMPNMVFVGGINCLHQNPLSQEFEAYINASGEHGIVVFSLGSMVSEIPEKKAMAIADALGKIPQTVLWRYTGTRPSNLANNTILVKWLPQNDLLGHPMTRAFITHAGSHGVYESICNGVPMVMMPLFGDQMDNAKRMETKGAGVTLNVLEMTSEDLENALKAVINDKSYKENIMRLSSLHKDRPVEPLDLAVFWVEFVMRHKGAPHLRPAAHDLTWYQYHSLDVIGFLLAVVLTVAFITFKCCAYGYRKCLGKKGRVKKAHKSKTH
The experiment in a line: Inhibition of expressed UGT1A1 (probe β-estradiol). In kind it is in vitro ADME. The method, then:
(§2) After centrifugation (13,800g, 10 min), the supernatant (8 μL) was obtained for determination by UHPLC system.
(§3) Similarly, β-estradiol (60 μM), propofol (40 μM) and 4-MU (350 μM) were typically used as the substrates for UGT1A1, 1A9 and 2B7, respectively. After optimization of incubation conditions (Additional file 1: Fig. S2), the protein concentrations for UGT1A1, 1A9, and 2B7 were 0.125, 0.05, and 0.05 mg/mL, respectively.

Data set [4] concerns the target T3, UGT1A9 (Homo sapiens, UniProt O60656).
T3 sequence (O60656 26-530): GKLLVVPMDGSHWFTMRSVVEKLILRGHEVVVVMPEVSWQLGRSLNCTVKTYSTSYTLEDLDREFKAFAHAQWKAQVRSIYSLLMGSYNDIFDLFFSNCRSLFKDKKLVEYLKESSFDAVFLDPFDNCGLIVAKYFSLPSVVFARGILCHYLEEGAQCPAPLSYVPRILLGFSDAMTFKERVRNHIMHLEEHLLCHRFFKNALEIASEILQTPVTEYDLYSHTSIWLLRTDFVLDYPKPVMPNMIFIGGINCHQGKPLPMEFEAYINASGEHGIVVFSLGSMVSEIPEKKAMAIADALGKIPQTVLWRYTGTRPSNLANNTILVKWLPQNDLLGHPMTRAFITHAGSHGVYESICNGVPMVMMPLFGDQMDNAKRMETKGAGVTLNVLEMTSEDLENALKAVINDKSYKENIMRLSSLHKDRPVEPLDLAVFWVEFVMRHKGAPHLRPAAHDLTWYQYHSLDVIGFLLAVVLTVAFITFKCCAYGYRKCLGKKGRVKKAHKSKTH
The experiment in a line: Inhibition of expressed UGT1A9 (probe propofol). In kind it is in vitro ADME. The procedure:
as §2, §3

Data set [5] has as its target T4, UGT2B7 (Homo sapiens, UniProt P16662).
T4 sequence (P16662 24-529): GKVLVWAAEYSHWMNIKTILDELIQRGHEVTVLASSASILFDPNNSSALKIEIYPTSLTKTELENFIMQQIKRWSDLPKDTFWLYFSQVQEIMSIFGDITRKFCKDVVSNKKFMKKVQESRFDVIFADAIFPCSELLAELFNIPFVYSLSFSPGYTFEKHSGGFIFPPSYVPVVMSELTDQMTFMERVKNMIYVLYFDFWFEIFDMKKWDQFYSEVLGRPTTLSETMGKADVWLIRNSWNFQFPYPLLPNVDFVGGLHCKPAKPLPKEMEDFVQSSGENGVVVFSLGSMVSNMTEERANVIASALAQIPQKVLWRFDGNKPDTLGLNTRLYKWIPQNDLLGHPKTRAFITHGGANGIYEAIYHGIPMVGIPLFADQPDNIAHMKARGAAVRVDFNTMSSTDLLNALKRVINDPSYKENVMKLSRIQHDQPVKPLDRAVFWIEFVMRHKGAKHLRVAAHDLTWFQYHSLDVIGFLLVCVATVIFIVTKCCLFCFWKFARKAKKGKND
Briefly: Inhibition of expressed UGT2B7 (probe 4-MU). In kind it is in vitro ADME. The method, then:
as §2, §3

The test system of data set [6] is P-gp. Also noted: method as in PMID 24380838. The following applies: in vitro and in vivo; cited from earlier work.
Setting [7] is: recombinant isozyme, mean ± SD of triplicate, unit not given (IC50 classes in μM), read-out: IC50 towards CYP2A6.
Where [8] appears, read: recombinant isozyme, mean ± SD of triplicate, unit not given (IC50 classes in μM), read-out: IC50 towards CYP3A4.
[9] abbreviates: recombinant isozyme, mean ± SD of triplicate, unit not given (IC50 classes in μM), read-out: IC50 towards UGT1A1.
The mark [10] stands for this setting: recombinant isozyme, mean ± SD of triplicate, unit not given (IC50 classes in μM), read-out: IC50 towards UGT1A9.
The mark [11] stands for this setting: recombinant isozyme, mean ± SD of triplicate, unit not given (IC50 classes in μM), read-out: IC50 towards UGT2B7.

The structures appear in SMILES notation. Where two headings read alike, the source gives them in different places.

Sequence of CYP3A4 (P08684 whole entry): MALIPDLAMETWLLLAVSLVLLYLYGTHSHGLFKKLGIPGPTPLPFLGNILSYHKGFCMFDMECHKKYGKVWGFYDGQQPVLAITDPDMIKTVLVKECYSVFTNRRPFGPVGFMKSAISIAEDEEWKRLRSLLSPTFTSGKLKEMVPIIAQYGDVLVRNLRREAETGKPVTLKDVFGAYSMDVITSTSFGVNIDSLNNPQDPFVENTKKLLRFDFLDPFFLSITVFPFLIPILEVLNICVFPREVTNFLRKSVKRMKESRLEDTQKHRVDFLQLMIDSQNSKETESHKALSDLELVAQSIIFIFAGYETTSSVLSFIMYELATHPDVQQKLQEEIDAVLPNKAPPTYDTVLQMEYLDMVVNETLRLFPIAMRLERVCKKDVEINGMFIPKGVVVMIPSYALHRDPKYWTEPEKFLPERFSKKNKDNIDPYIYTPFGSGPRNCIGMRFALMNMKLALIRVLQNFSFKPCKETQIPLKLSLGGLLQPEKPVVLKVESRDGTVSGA

In the case of `CC(C)=CCC[C@](C)(O[C@@H]1O[C@H](CO[C@@H]2O[C@@H](CO)[C@H](O)[C@H]2O)[C@@H](O)[C@H](O)[C@H]1O)[C@H]1CC[C@]2(C)[C@@H]1[C@H](O)C[C@@H]1[C@@]3(C)CC[C@H](O[C@@H]4O[C@H](CO)[C@@H](O)[C@H](O)[C@H]4O[C@@H]4O[C@H](CO)[C@@H](O)[C@H](O)[C@H]4O)C(C)(C)[C@@H]3CC[C@]12C` [Compound D3, Ginsenoside Rc], the IC50 in data set [1] (setting [7]) is above 100 µM; in data set [2] (setting [8]) it was above 100 µM; in data set [3] (setting [9]), above 100 µM; in data set [4] (propofol 40 μM, read-out: IC50 against UGT1A9), 29 µM; in data set [4] (setting [10]), 29 ± 12.7 µM; in data set [5] (setting [11]), above 100 µM. For the same molecule, in data set [4] (UGT1A9), the “inhibition type (smallest AIC and SC)” value is given as “Noncompetitive inhibition”. Further, the inhibitory constant (Ki) in data set [4] (UGT1A9, competitive model) came out at 8.9 ± 1.5 µM; in data set [4] (UGT1A9, mixed-type model), 27 ± 7.5 µM; in data set [4] (UGT1A9, noncompetitive model), 22.3 ± 1.4 µM. The molecule further had a α in data set [4] (UGT1A9, mixed-type model) of 0.7 ± 0.3. For the same molecule, the “Cmax/Ki ([I]/Ki)” value in data set [4] (UGT1A9, selected model, rat plasma Cmax) came out at 0.04.
`CC(C)=CCC[C@](C)(O[C@@H]1O[C@H](CO)[C@@H](O)[C@H](O)[C@H]1O)[C@H]1CC[C@]2(C)[C@@H]1[C@H](O)C[C@@H]1[C@@]3(C)CC[C@H](O)C(C)(C)[C@@H]3[C@@H](O[C@@H]3O[C@H](CO)[C@@H](O)[C@H](O)[C@H]3O)C[C@]12C` [Compound C6, Ginsenoside Rg1]: the concentration for half-maximal inhibition (IC50) in data set [1] (setting [7]) was above 100 µM; in data set [2] (setting [8]), above 100 µM; in data set [3] (setting [9]) it was 92.2 ± 40 µM; in data set [3] (β-estradiol 60 μM, read-out: IC50 against UGT1A1), 92.2 µM; in data set [4] (setting [10]), above 100 µM; in data set [5] (setting [11]) it was above 100 µM. In addition, the “inhibition type (smallest AIC and SC)” value in data set [3] (UGT1A1) is listed as “competitive inhibition”. For the same molecule, the inhibitory constant (Ki) in data set [3] (UGT1A1, competitive model) is 141 ± 10.5 µM; in data set [3] (UGT1A1, mixed-type model) it was 147 ± 29.9 µM; in data set [3] (UGT1A1, noncompetitive model) it was 187 ± 12.7 µM. The α in data set [3] (UGT1A1, mixed-type model) came to 8.3 ± 37.2. In data set [3] (UGT1A1, selected model, rat plasma Cmax), the “Cmax/Ki ([I]/Ki)” value is 0.01.
On to `O=C1CCC[C@@H]2[C@H]3CCCN4CCC[C@@H](CN12)[C@@H]34` [Compound A1, Matrine], for which the IC50 in data set [1], in data set [2], in data set [3], in data set [4] and in data set [5] was above 100 µM each time. In addition, the “inhibition of P-gp” value in data set [6] is “did not demonstrate the inhibition of P-gp”.
For the molecule `CC(C)=CCC[C@](C)(O)[C@H]1CC[C@]2(C)[C@@H]1[C@H](O)C[C@@H]1[C@@]3(C)CC[C@H](O)C(C)(C)[C@@H]3[C@@H](O[C@@H]3O[C@H](CO)[C@@H](O)[C@H](O)[C@H]3O[C@@H]3O[C@H](CO)[C@@H](O)[C@H](O)[C@H]3O)C[C@]12C` [Compound C7, Ginsenoside Rf], the IC50 in data set [1] (setting [7]), in data set [2] (setting [8]), in data set [3] (setting [9]), in data set [4] (setting [10]) and in data set [5] (setting [11]) was above 100 µM throughout.
Regarding `CC(C)=CCC[C@](C)(O[C@@H]1O[C@H](CO)[C@@H](O)[C@H](O)[C@H]1O)[C@H]1CC[C@]2(C)[C@@H]1[C@H](O)C[C@@H]1[C@@]3(C)CC[C@H](O[C@@H]4O[C@H](CO)[C@@H](O)[C@H](O)[C@H]4O[C@@H]4O[C@H](CO)[C@@H](O)[C@H](O)[C@H]4O)C(C)(C)[C@@H]3CC[C@]12C` [Compound D2, Ginsenoside Rd], the IC50 in data set [1] (setting [7]) was above 100 µM; in data set [2] (nifedipine 40 μM, read-out: IC50 towards CYP3A4), 41 µM; in data set [2] (setting [8]), 41 ± 25.8 µM; in data set [3] (setting [9]) it was above 100 µM; in data set [4] (setting [10]) it was above 100 µM; in data set [5] (setting [11]), above 100 µM. In data set [2] (CYP3A4), the “inhibition type (smallest AIC and SC)” value is on record as “Noncompetitive inhibition”. For the same molecule, the Ki worked out at 8.7 ± 2.3 µM in data set [2] (CYP3A4, competitive model); 44.2 ± 16.2 µM in data set [2] (CYP3A4, mixed-type model); 32.8 ± 2.2 µM in data set [2] (CYP3A4, noncompetitive model). Besides, in data set [2] (CYP3A4, mixed-type model), the α turned out to be 0.6 ± 0.3. Moreover, the “Cmax/Ki ([I]/Ki)” value in data set [2] (CYP3A4, selected model, rat plasma Cmax) is given as 0.02.
For the molecule `CC(C)=CCC[C@](C)(O[C@@H]1O[C@H](CO[C@@H]2O[C@H](CO)[C@@H](O)[C@H](O)[C@H]2O)[C@@H](O)[C@H](O)[C@H]1O)[C@H]1CC[C@]2(C)[C@@H]1[C@H](O)C[C@@H]1[C@@]3(C)CC[C@H](O[C@@H]4O[C@H](CO)[C@@H](O)[C@H](O)[C@H]4O[C@@H]4O[C@H](CO)[C@@H](O)[C@H](O)[C@H]4O)C(C)(C)[C@@H]3CC[C@]12C` [Compound D5, Ginsenoside Rb1], the IC50 in data set [1] (setting [7]), in data set [2] (setting [8]), in data set [3] (setting [9]), in data set [4] (setting [10]) and in data set [5] (setting [11]) was above 100 µM in each case.
Consider `CC(C)=CCC[C@](C)(O[C@@H]1O[C@H](CO)[C@@H](O)[C@H](O)[C@H]1O)[C@H]1CC[C@]2(C)[C@@H]1[C@H](O)C[C@@H]1[C@@]3(C)CC[C@H](O)C(C)(C)[C@@H]3[C@@H](O[C@@H]3O[C@H](CO)[C@@H](O)[C@H](O)[C@H]3O[C@@H]3O[C@@H](C)[C@H](O)[C@@H](O)[C@H]3O)C[C@]12C` [Compound C9, Ginsenoside Re], for which the IC50 in data set [1] (setting [7]), in data set [2] (setting [8]), in data set [3] (setting [9]), in data set [4] (setting [10]) and in data set [5] (setting [11]) was above 100 µM in each case.

The values are drawn from PMC7339578, “Multiple circulating alkaloids and saponins from intravenous Kang-Ai injection inhibit human cytochrome P450 and UDP-glucuronosyltransferase isozymes: potential drug–drug interactions” (Chinese Medicine, 2020).
